This experiment concerns the target T1, MAP3K2 (MEKK2) (Homo sapiens, UniProt Q9Y2U5).
T1 construct: purchased Thermo Fisher Scientific (Life Technologies) SelectScreen
Put plainly: SelectScreen LanthaScreen. It counts as binding. To be noted: read-out: % displacement. Summed up:
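SelectScreen broad panel; activity (Z'LYTE, Adapta) plus binding formats. ATP: Km app for CSF1R Z'LYTE; 10 for CAMK1 Adapta. Readout = % per kinase.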

Each structure is given as a SMILES string.

T1 sequence (Q9Y2U5 whole entry): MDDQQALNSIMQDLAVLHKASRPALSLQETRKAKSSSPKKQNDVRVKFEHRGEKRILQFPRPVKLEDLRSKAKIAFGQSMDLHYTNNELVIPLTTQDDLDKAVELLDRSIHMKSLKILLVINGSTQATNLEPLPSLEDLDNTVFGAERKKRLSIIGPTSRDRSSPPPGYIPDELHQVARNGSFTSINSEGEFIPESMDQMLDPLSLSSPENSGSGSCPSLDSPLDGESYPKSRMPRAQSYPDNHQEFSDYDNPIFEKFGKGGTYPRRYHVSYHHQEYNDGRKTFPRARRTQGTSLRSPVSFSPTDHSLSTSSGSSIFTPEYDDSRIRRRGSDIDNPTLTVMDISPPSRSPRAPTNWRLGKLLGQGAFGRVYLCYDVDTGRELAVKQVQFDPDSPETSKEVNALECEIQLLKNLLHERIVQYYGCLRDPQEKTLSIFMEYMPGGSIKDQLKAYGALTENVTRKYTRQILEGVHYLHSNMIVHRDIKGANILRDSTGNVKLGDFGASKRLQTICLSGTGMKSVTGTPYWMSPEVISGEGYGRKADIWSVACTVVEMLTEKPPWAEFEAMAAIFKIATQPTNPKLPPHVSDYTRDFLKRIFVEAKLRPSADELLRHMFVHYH

For `CN(C(=O)CN1CCOCC1)c1ccc2sc3c(-c4cccc5c(=O)cc(N6CC7CCC(C6)O7)oc45)cccc3c2c1` [NU5455], the inhibition at 1 µM came to 0.1%.

Values taken from paper PMC6934184, “Selective DNA-PKcs inhibition extends the therapeutic index of localized radiotherapy and chemotherapy” (The Journal of Clinical Investigation, 2019).
